This passage reports inhibition, IC50 and Activity results from ChEMBL document CHEMBL3414441, “Development of multifunctional, heterodimeric isoindoline-1,3-dione derivatives as cholinesterase and β-amyloid aggregation inhibitors with neuroprotective properties” (Eur J Med Chem, 2015).

Molecules are shown by their SMILES. Activity calls are given as the source filed them. The calls are words filed in the database; no cut-off is given here. Some results are limits rather than exact numbers.

Broadly, the inhibition is the change of the read-out against control, counted positive when it falls. A word on the IC50: it is the concentration that gives 50% inhibition.

For data set [1], the target named is Acetylcholinesterase (Electrophorus electricus) (UniProt O42275). As to the kind of experiment: Non-competitive inhibition of Electrophorus electricus AChE after 5 mins by Lineweaver-Burk plot analysis.
Sequence of Acetylcholinesterase (Electrophorus electricus) (O42275 24-633 limits assumed): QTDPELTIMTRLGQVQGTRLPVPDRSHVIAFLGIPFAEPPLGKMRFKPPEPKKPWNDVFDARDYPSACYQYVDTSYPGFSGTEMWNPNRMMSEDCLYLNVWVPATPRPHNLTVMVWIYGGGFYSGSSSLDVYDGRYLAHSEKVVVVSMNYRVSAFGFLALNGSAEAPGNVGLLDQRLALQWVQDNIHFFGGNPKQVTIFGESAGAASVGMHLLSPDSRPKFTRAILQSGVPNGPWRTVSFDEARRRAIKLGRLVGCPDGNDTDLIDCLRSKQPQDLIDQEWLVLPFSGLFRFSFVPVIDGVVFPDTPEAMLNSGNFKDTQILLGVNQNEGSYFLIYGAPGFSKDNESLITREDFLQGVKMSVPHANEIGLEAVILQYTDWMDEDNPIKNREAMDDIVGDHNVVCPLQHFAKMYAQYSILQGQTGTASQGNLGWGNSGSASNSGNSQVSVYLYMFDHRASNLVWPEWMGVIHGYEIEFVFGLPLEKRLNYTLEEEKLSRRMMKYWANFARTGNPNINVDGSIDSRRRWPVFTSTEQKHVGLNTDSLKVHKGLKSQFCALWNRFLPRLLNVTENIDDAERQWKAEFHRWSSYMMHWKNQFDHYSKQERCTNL
Data set [2] deals with Acetylcholinesterase (Electrophorus electricus, UniProt O42275).
Sequence of Acetylcholinesterase (Electrophorus electricus, UniProt O42275) (O42275 whole entry): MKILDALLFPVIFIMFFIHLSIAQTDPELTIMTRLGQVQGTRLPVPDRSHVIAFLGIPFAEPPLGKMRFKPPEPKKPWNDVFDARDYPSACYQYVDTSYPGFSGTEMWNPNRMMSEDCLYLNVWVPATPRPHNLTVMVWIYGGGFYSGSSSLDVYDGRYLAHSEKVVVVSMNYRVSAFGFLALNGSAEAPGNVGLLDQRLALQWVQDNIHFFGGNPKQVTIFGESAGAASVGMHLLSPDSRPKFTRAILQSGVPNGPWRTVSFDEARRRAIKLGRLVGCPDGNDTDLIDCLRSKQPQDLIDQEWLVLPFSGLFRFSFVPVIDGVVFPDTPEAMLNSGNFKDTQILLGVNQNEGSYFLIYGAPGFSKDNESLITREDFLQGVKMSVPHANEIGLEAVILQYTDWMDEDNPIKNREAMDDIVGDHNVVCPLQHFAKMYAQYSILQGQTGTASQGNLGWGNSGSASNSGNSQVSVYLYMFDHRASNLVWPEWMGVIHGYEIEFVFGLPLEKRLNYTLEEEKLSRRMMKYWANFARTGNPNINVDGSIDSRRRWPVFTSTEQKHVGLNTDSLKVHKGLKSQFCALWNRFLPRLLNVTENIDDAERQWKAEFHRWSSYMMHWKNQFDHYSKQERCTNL
Description: Inhibition of Electrophorus electricus AChE after 5 mins by Ellman's method
The target in data set [3] is T1, Acetylcholinesterase (Homo sapiens, UniProt P22303).
T1 sequence (P22303 whole entry): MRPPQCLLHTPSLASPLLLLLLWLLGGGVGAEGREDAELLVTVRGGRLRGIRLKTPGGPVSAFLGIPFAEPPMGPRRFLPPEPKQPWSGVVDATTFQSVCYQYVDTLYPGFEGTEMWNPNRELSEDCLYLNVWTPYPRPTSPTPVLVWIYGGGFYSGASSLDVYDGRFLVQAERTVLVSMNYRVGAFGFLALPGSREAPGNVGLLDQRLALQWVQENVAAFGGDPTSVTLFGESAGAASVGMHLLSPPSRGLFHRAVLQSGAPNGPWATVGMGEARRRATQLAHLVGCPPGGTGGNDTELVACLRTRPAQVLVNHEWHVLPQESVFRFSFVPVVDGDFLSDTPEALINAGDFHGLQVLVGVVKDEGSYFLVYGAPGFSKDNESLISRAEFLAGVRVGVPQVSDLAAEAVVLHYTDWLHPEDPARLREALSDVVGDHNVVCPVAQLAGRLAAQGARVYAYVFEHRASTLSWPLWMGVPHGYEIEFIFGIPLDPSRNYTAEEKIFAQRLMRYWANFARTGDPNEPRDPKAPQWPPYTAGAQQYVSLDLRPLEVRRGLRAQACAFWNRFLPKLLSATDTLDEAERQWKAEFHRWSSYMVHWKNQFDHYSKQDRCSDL
Description: Inhibition of human recombinant AChE after 5 mins by Ellman's method
Data set [4] concerns the target Cholinesterase (Equus caballus) (UniProt P81908). As to the kind of experiment: Inhibition of equine serum BuChE at 10 uM after 5 mins by Ellman's method. (In general: DTNB colorimetry detects thiols as they appear.)
The target of data set [5] is T1, Acetylcholinesterase. As to the kind of experiment: Inhibition of human recombinant AChE at 10 uM after 5 mins by Ellman's method.
In data set [6] the target is Acetylcholinesterase (Electrophorus electricus) (UniProt O42275). As to the kind of experiment: Inhibition of Electrophorus electricus AChE at 10 uM after 5 mins by Ellman's method.
The target in data set [7] is Cholinesterase (Equus caballus, UniProt P81908).
Sequence of Cholinesterase (P81908 whole entry): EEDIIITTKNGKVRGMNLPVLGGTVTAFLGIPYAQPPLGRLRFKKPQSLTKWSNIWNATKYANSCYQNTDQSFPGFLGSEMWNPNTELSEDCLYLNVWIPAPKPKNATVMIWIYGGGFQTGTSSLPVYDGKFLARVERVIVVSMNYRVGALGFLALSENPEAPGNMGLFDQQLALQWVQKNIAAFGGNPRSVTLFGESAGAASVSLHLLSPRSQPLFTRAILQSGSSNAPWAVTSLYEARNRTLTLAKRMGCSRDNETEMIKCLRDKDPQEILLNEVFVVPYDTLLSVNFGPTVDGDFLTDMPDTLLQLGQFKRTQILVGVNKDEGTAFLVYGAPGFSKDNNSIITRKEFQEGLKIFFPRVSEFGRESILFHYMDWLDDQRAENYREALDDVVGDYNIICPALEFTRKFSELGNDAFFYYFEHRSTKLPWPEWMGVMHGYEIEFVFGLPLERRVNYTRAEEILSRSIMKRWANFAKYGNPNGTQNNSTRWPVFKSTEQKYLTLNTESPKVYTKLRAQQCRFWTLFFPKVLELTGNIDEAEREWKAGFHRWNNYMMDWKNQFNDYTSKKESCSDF
Description: Inhibition of equine serum BuChE after 5 mins by Ellman's method
The target of data set [8] is Amyloid-beta precursor protein (Homo sapiens) (UniProt P05067). As to the kind of experiment: Inhibition of human recombinant amyloid beta (1 to 42) self-induced aggregation after 24 hrs by thioflavin-T based fluorometric assay.
Sequence of Amyloid-beta precursor protein (Homo sapiens) (P05067 whole entry): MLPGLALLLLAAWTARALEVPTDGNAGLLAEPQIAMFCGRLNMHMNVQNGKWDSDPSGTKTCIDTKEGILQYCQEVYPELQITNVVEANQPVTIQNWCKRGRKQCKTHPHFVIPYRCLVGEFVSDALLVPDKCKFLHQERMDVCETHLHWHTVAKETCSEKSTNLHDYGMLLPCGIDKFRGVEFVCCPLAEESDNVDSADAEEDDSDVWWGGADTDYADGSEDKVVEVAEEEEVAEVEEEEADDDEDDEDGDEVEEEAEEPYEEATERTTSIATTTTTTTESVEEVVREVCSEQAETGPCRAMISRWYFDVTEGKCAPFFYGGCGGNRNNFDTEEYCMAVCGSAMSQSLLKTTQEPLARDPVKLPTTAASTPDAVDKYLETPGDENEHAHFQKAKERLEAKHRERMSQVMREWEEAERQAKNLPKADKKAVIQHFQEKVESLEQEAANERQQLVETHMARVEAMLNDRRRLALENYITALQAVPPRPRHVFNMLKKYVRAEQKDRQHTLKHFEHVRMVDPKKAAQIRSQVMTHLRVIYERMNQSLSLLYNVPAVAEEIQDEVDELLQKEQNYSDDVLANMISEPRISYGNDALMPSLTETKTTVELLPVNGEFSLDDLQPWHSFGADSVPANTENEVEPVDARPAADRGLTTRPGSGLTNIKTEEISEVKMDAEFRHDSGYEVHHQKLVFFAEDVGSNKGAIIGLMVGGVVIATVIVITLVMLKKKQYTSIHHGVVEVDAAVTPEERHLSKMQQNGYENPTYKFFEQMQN
The target is the same in data set [9]. As to the kind of experiment: Neuroprotective activity in human SH-SY5Y cells assessed as inhibition amyloid beta (1 to 42)-induced cytotoxicity at 10 uM after 48 hrs. In kind it is functional, cell-based.
The target is the same in data set [10]. As to the kind of experiment: Neuroprotective activity in human SH-SY5Y cells assessed as inhibition amyloid beta (1 to 42)-induced cytotoxicity at 3 uM after 48 hrs. More on the design: scale not given: the % may be the effect or the level left. The format is functional, cell-based.
For data set [11] the target is unchanged. As to the kind of experiment: Neuroprotective activity in human SH-SY5Y cells assessed as inhibition amyloid beta (1 to 42)-induced cytotoxicity at 1 uM after 48 hrs. In kind it is functional, cell-based. Set-up: scale not given: the % may be the effect or the level left.
Data set [12] in a line: Cytotoxicity against human SH-SY5Y cells assessed as cell viability at 0.1 to 10 uM after 48 hrs by MTS assay. The format is cell-based. For orientation: Tetrazolium dyes change colour on reduction, which living cells bring about.

Sequence of Cholinesterase (Equus caballus) (P81908 whole entry): as the sequence (P81908 whole entry) above

Turning to `O=C1c2ccccc2C(=O)N1CCCCCNCc1cccc(Cl)c1`, the inhibition entry in data set [1] was “Active”. In addition, the IC50 in [2] turned out to be 34 nM; in [3], 160 nM. The same compound yielded an inhibition in [4] of less than 50%.

In the case of `O=C1c2ccccc2C(=O)N1CCCCNCc1ccc(F)cc1`, the inhibition in [5], in [6] and in data set [4] was less than 50% in each case.

Turning to `O=C1c2ccccc2C(=O)N1CCCCCCCNCc1ccc(F)cc1`, the IC50 in data set [7] is 1580 nM; in [2], 361 nM; in data set [3] it was 437 nM.

`O=C1c2ccccc2C(=O)N1CCCCCCCCNCc1ccccc1F`: the IC50 was determined as 2090 nM in data set [7], 438 nM in data set [2] and 545 nM in data set [3].

In the case of `O=C1c2ccccc2C(=O)N1CCCCCNCc1ccccc1`, the results for the IC50 in [2] and in [3] were 78 nM and 202 nM, respectively. For the same compound, the inhibition in [4] is less than 50%.

With `O=C1c2ccccc2C(=O)N1CCCCCNCc1ccc(F)cc1`, the inhibition entry is “Dose-dependent effect” in data set [8] and less than 50% in [4]. Besides, in data set [9], the outcome was inactive. Besides, the Activity in data set [10] is 76.2%; in data set [11], 84.5%; in [12], “Non-toxic”. For the same compound, the IC50 came to 219 nM in [2] and 268 nM in data set [3].

As to `O=C1c2ccccc2C(=O)N1CCCCCNCc1ccccc1F`, the IC50 in data set [2] was determined as 41 nM; in [3], 168 nM. This compound also displayed an inhibition in [4] of less than 50%.

Regarding `O=C1c2ccccc2C(=O)N1CCCCCCNCc1ccccc1`, the IC50 in [2] came out at 216 nM; in data set [3] it was 2100 nM. For the same compound, in data set [4], the inhibition is less than 50%.

With `O=C1c2ccccc2C(=O)N1CCCCCCCCNCc1ccc(F)cc1F`, the IC50 in data set [7] amounted to 1060 nM; in [2] it was 601 nM; in [3], 578 nM.

Consider `O=C1c2ccccc2C(=O)N1CCCCNCc1ccccc1`, for which the inhibition in data set [5] and in [4] was less than 50% in each case. Besides, inhibition in data set [2] was half-maximal at 5280 nM (IC50).

As to `O=C1c2ccccc2C(=O)N1CCCCNCc1ccccc1F`, the inhibition in [5] and in data set [4] was less than 50% each time. Besides, the IC50 in data set [2] was 2030 nM.

In the case of `O=C1c2ccccc2C(=O)N1CCCCCCNCc1ccc(F)cc1`, the IC50 in [7] came to 9200 nM; in data set [2] it was 694 nM; in data set [3], 3170 nM.

In the case of `O=C1c2ccccc2C(=O)N1CCCCCCCCNCc1cccc(Cl)c1`, the values for the IC50 in data set [7], in [2] and in data set [3] were 1480 nM, 729 nM and 686 nM, respectively.

In the case of `O=C1c2ccccc2C(=O)N1CCCCCCNCc1ccc(F)cc1F`, the results for the IC50 in data set [7], in [2] and in [3] were 8090 nM, 229 nM and 1600 nM, respectively. In addition, the outcome in data set [9] was inactive. Also, the Activity in data set [10] is 66.5%; in data set [11] it was 80.3%; in data set [12] it was “Non-toxic”.

As for `O=C1c2ccccc2C(=O)N1CCCCCNCc1ccc(F)cc1F`, the inhibition entry in [1] was “Active”. The IC50 in data set [2] was 100 nM; in data set [3], 258 nM. For the same compound, the inhibition in data set [4] is less than 50%.

Consider `O=C1c2ccccc2C(=O)N1CCCCCCCNCc1cccc(Cl)c1`, for which the IC50 in data set [7] amounted to 2630 nM; in data set [2], 502 nM; in [3], 651 nM.

Turning to `O=C1c2ccccc2C(=O)N1CCCCCCCNCc1ccc(F)cc1F`, the IC50 in data set [7] was found to be 1870 nM; in [2], 171 nM; in data set [3], 381 nM.

In the case of `O=C1c2ccccc2C(=O)N1CCCCCCCCNCc1ccccc1`, the inhibition result in data set [1] is “Active”. Moreover, the IC50 in data set [7] was 1230 nM; in data set [2], 773 nM; in [3], 496 nM.

`O=C1c2ccccc2C(=O)N1CCCCCCNCc1cccc(Cl)c1`: the IC50 turned out to be 4600 nM in data set [7], 180 nM in data set [2] and 2010 nM in [3].

Consider `O=C1c2ccccc2C(=O)N1CCCCCCCCNCc1ccc(F)cc1`, for which the inhibition in data set [5] is less than 50%. Besides, the IC50 stood at 1690 nM in data set [7] and 2230 nM in data set [2].

As to `O=C1c2ccccc2C(=O)N1CCCCCCCNCc1ccccc1`, the values for the IC50 in data set [7], in data set [2] and in data set [3] were 1710 nM, 249 nM and 303 nM, respectively.

`O=C1c2ccccc2C(=O)N1CCCCCCCNCc1ccccc1F`: the IC50 in data set [7] was 2380 nM; in [2], 119 nM; in data set [3], 329 nM.

On to `O=C1c2ccccc2C(=O)N1CCCCNCc1ccc(F)cc1F`, for which the inhibition in data set [5] and in [4] was less than 50% each time. This compound also displayed an IC50 in [2] of 8180 nM.

With `O=C1c2ccccc2C(=O)N1CCCCCCNCc1ccccc1F`, the IC50 in [2] stood at 113 nM; in data set [3] it was 941 nM. In [4], this compound yielded an inhibition of less than 50%.

As for `O=C1c2ccccc2C(=O)N1CCCCNCc1cccc(Cl)c1`, the inhibition in data set [5] and in [4] was less than 50% throughout. For the same compound, the IC50 in [2] was determined as 1970 nM.
